Assay results as given in ChEMBL document CHEMBL1201862, “PubChem BioAssay data set” (2004).
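Five compound concentrations were applied to cells in 96-well plates for 48 hours; endpoints were derived by simple linear interpolation of the resulting dose-response curve. The concentration for 50% growth inhibition is given as GI50.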 Active and inactive are the calls of the source. No stated cut-off is given here; in the data, active = GI50 up to about 1.1 µM and inactive = higher.

Key:
Test in all cases: DTP human tumour cell line panel, 48 h
A549 = tested on: A549
CAKI-1 = tested on: CAKI-1
COLO 205 = tested on: COLO 205
EKVX = tested on: EKVX
HCT-116 = tested on: HCT-116
HL-60 = tested on: HL-60
K562 = tested on: K562
M14 = tested on: M14
MOLT-4 = tested on: MOLT-4
OVCAR-3 = tested on: OVCAR-3
SF-268 = tested on: SF-268
SNB-19 = tested on: SNB-19
SNB-75 = tested on: SNB-75
HOP-92 = tested on: HOP-92
LOX IMVI = tested on: LOX IMVI
OVCAR-5 = tested on: OVCAR-5
SF-295 = tested on: SF-295

| SMILES | GI50 (A549) | GI50 (CAKI-1) | GI50 (COLO 205) | GI50 (EKVX) | GI50 (HCT-116) | GI50 (HL-60) | GI50 (K562) | GI50 (M14) | GI50 (MOLT-4) | GI50 (OVCAR-3) | GI50 (SF-268) | GI50 (SNB-19) | GI50 (SNB-75) | GI50 (HOP-92) | GI50 (LOX IMVI) | GI50 (OVCAR-5) | GI50 (SF-295) |
| --- | --- | --- | --- | --- | --- | --- | --- | --- | --- | --- | --- | --- | --- | --- | --- | --- | --- |
| Cc1ccc(/C=C2\CCCC(C(NO)c3ccc(C)cc3)C2=NO)cc1 (stereo not given) | 36.1 µM (inactive) | 81.8 µM (inactive) | 19.1 µM (inactive) | 44.4 µM (inactive) | 45.6 µM (inactive) | 19.5 µM (inactive) | 33.8 µM (inactive) | 26.4 µM (inactive) | 19.1 µM (inactive) | 16.7 µM (inactive) | 17.6 µM (inactive) | 83.6 µM (inactive) | 28 µM (inactive) | – | – | – | – |
| CCOC(C)C(/C=N/NC(N)=S)=NNC(N)=S (stereo not given) [GLOXAZONE] | > 100 µM (inactive) | > 100 µM (inactive) | > 100 µM (inactive) | 0.248 µM (active) | – | 0.0531 µM (active) | < 0.0195 µM (active) | – | < 0.0254 µM (active) | – | > 100 µM (inactive) | > 100 µM (inactive) | 40.3 µM (inactive) | 46.1 µM (inactive) | > 100 µM (inactive) | > 100 µM (inactive) | 1.64 µM (inactive) |
| COc1cc(/C=N/N=C(\N)NO)ccc1O | 47.3 µM (inactive) | 28.6 µM (inactive) | > 100 µM (inactive) | 71.9 µM (inactive) | 69.8 µM (inactive) | – | 33.3 µM (inactive) | – | 65.9 µM (inactive) | – | 56 µM (inactive) | > 100 µM (inactive) | – | > 100 µM (inactive) | 30.5 µM (inactive) | 18.1 µM (inactive) | 26.1 µM (inactive) |
| COc1cc(C=C2C(=O)OC(C)(C)OC2=O)cc(OC)c1OC | > 100 µM (inactive) | > 100 µM (inactive) | > 100 µM (inactive) | > 100 µM (inactive) | > 100 µM (inactive) | > 100 µM (inactive) | > 100 µM (inactive) | > 100 µM (inactive) | > 100 µM (inactive) | > 100 µM (inactive) | > 100 µM (inactive) | > 100 µM (inactive) | – | > 100 µM (inactive) | > 100 µM (inactive) | > 100 µM (inactive) | > 100 µM (inactive) |
| NNC(=O)N/N=C1\C(=O)N(c2ccc(Cl)c(Cl)c2)C(=O)C(=O)C1c1nc2ccccc2s1 (stereo not given) | > 100 µM (inactive) | > 100 µM (inactive) | > 100 µM (inactive) | > 100 µM (inactive) | > 100 µM (inactive) | > 100 µM (inactive) | – | > 100 µM (inactive) | 69.3 µM (inactive) | > 100 µM (inactive) | > 100 µM (inactive) | > 100 µM (inactive) | > 100 µM (inactive) | > 100 µM (inactive) | – | – | > 100 µM (inactive) |
| O=C(O)/C(Cl)=C(Cl)/C=N/NC(=O)c1cc2ccccc2cc1O | 9.18 µM (inactive) | 21 µM (inactive) | 32.5 µM (inactive) | 30.2 µM (inactive) | 13.9 µM (inactive) | 5.42 µM (inactive) | 6.11 µM (inactive) | 14.5 µM (inactive) | 5.89 µM (inactive) | 6.11 µM (inactive) | 7.66 µM (inactive) | 35.2 µM (inactive) | 3.38 µM (inactive) | 30.3 µM (inactive) | – | 19.3 µM (inactive) | 11.9 µM (inactive) |
| Cc1ccccc1C1OC(=O)c2ccccc21 (stereo not given) | > 100 µM (inactive) | – | > 100 µM (inactive) | > 100 µM (inactive) | > 100 µM (inactive) | > 100 µM (inactive) | > 100 µM (inactive) | > 100 µM (inactive) | > 100 µM (inactive) | > 100 µM (inactive) | > 100 µM (inactive) | > 100 µM (inactive) | 77.3 µM (inactive) | – | > 100 µM (inactive) | > 100 µM (inactive) | – |
| C=CCNC(=S)NNC(=O)c1c(C)nc2sccn12 | > 100 µM (inactive) | > 100 µM (inactive) | > 100 µM (inactive) | > 100 µM (inactive) | > 100 µM (inactive) | > 100 µM (inactive) | > 100 µM (inactive) | – | > 100 µM (inactive) | > 100 µM (inactive) | > 100 µM (inactive) | > 100 µM (inactive) | – | 70 µM (inactive) | > 100 µM (inactive) | > 100 µM (inactive) | > 100 µM (inactive) |
| Cc1ccc(S(=O)(=O)C(CC(NC=O)S(=O)(=O)c2ccc(C)cc2)NC=O)cc1 (stereo not given) | > 100 µM (inactive) | > 100 µM (inactive) | > 100 µM (inactive) | > 100 µM (inactive) | > 100 µM (inactive) | > 100 µM (inactive) | > 100 µM (inactive) | > 100 µM (inactive) | > 100 µM (inactive) | > 100 µM (inactive) | > 100 µM (inactive) | > 100 µM (inactive) | > 100 µM (inactive) | > 100 µM (inactive) | > 100 µM (inactive) | – | > 100 µM (inactive) |
| Cc1cc2c(C)nn(Cc3ccccc3Cl)c2c(C#N)c1C | > 100 µM (inactive) | – | > 100 µM (inactive) | > 100 µM (inactive) | > 100 µM (inactive) | > 100 µM (inactive) | – | – | > 100 µM (inactive) | > 100 µM (inactive) | > 100 µM (inactive) | > 100 µM (inactive) | > 100 µM (inactive) | > 100 µM (inactive) | > 100 µM (inactive) | > 100 µM (inactive) | > 100 µM (inactive) |
| CCOC1=C2N=C(C(CC)c3ccccc3F)N=C2C(=O)c2ccccc21 (stereo not given) | > 100 µM (inactive) | > 100 µM (inactive) | > 100 µM (inactive) | > 100 µM (inactive) | > 100 µM (inactive) | > 100 µM (inactive) | > 100 µM (inactive) | > 100 µM (inactive) | 24 µM (inactive) | > 100 µM (inactive) | > 100 µM (inactive) | > 100 µM (inactive) | 25.4 µM (inactive) | 95.7 µM (inactive) | – | – | > 100 µM (inactive) |
| N#CCCn1[nH]c(=O)c(Cl)c(Cl)c1=O | 22.7 µM (inactive) | – | 22.2 µM (inactive) | 3.87 µM (inactive) | 15.1 µM (inactive) | 11.3 µM (inactive) | 6.12 µM (inactive) | – | 15.9 µM (inactive) | 13.6 µM (inactive) | 16.3 µM (inactive) | 15.4 µM (inactive) | 13.2 µM (inactive) | 6.21 µM (inactive) | 15 µM (inactive) | 18.8 µM (inactive) | 18.1 µM (inactive) |
| c1ccc2cc(C3NCCc4nc[nH]c43)ccc2c1 (stereo not given) | > 100 µM (inactive) | 60.3 µM (inactive) | 24.9 µM (inactive) | – | 67.3 µM (inactive) | – | 29.6 µM (inactive) | 39.9 µM (inactive) | 25.1 µM (inactive) | 61.2 µM (inactive) | > 100 µM (inactive) | – | 46.2 µM (inactive) | 49.3 µM (inactive) | 71.6 µM (inactive) | > 100 µM (inactive) | 68.5 µM (inactive) |
| CCN1C[C@]2(C)CC[C@H](OC)C34C1C([C@H](OC(C)=O)[C@@H]32)[C@@]1(OC)C[C@H](OC)[C@H]2C[C@@H]4[C@@H]1[C@H]2O | > 100 µM (inactive) | > 100 µM (inactive) | 55.5 µM (inactive) | > 100 µM (inactive) | > 100 µM (inactive) | > 100 µM (inactive) | 92.5 µM (inactive) | > 100 µM (inactive) | > 100 µM (inactive) | – | > 100 µM (inactive) | > 100 µM (inactive) | > 100 µM (inactive) | > 100 µM (inactive) | > 100 µM (inactive) | > 100 µM (inactive) | > 100 µM (inactive) |
| CC(=O)OC1CC2(C)OC(Cc3ccccc32)O1 (stereo not given) | > 100 µM (inactive) | – | > 100 µM (inactive) | > 100 µM (inactive) | > 100 µM (inactive) | > 100 µM (inactive) | > 100 µM (inactive) | > 100 µM (inactive) | > 100 µM (inactive) | > 100 µM (inactive) | > 100 µM (inactive) | > 100 µM (inactive) | 65.9 µM (inactive) | 53.6 µM (inactive) | > 100 µM (inactive) | – | > 100 µM (inactive) |
| C=CCCCN1CCCCC1=S | > 100 µM (inactive) | – | > 100 µM (inactive) | > 100 µM (inactive) | > 100 µM (inactive) | > 100 µM (inactive) | > 100 µM (inactive) | > 100 µM (inactive) | > 100 µM (inactive) | > 100 µM (inactive) | – | > 100 µM (inactive) | 36.5 µM (inactive) | > 100 µM (inactive) | > 100 µM (inactive) | > 100 µM (inactive) | > 100 µM (inactive) |
| Cc1ccc(-c2cc(=O)c3cc(C)c(C)c(C(=O)O)c3o2)cc1 | > 100 µM (inactive) | – | > 100 µM (inactive) | > 100 µM (inactive) | > 100 µM (inactive) | – | > 10 µM (inactive) | > 100 µM (inactive) | > 100 µM (inactive) | > 100 µM (inactive) | > 100 µM (inactive) | > 100 µM (inactive) | 47.9 µM (inactive) | > 100 µM (inactive) | > 100 µM (inactive) | > 100 µM (inactive) | > 100 µM (inactive) |
| O=C(c1ccccc1)c1c(CNCc2ccccc2)n(C(=O)c2ccccc2)c2ccccc12 | 22.4 µM (inactive) | 69.3 µM (inactive) | 47 µM (inactive) | – | 8.67 µM (inactive) | 23.3 µM (inactive) | 6.37 µM (inactive) | 34.4 µM (inactive) | 7.43 µM (inactive) | 15.4 µM (inactive) | 43.4 µM (inactive) | 22.8 µM (inactive) | 2.84 µM (inactive) | 13.7 µM (inactive) | – | > 100 µM (inactive) | 9.51 µM (inactive) |
